Reference: PubChem BioAssay AID1648 (Sanford-Burnham Center for Chemical Genomics, 2009)
Activity calls are given as the source filed them. How the calls were made is not given here.

The compounds below were run against Serine/threonine-protein kinase mTOR (Homo sapiens) (UniProt P42345) (assay: mTOR FRB domain ligand binding – biophysical, NMR (AID 1648)). Conditions: NMR binding to FRB domain, chemical shift.
Chain of Serine/threonine-protein kinase mTOR (Homo sapiens) (P42345 2015-2114): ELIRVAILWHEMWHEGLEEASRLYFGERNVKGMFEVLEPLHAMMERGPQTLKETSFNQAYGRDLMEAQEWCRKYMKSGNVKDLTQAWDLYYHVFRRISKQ

Question: How did the Kd turn out when `COc1ccc(/C=C/c2cc(O)cc(O)c2)cc1` was run?
Answer: > 4 mM (inactive)

Question: With `NC1=NC(=O)/C(=C/c2ccc(O)c(Cl)c2)S1` as the compound, how does the Kd read?
Answer: > 4 mM (inactive)

Question: Which Kd does the source give for `O=C(O)/C=C/c1ccc(O)c(O)c1` here?
Answer: > 4 mM (inactive)

Question: Which Kd does the source give for `Cc1cc(C(=O)Nc2nnc(C(F)(F)F)s2)no1` here?
Answer: > 4 mM (inactive)

Question: Which Kd does the source give for `Cc1ncc(C[n+]2csc3ccccc32)c(N)n1` here?
Answer: > 4 mM (inactive)

Question: How did the Kd turn out when `O=C(Nc1ccon1)c1csc2c1CCCC2` was run?
Answer: > 4 mM (inactive)

Question: `Nc1ccc(Cc2ccc(N)cc2)cc1` was tested. Which Kd did it give?
Answer: > 4 mM (inactive)

Question: For `COc1ccc(-c2ccc(OC)cc2C(=O)O)cc1`, which Kd is on record?
Answer: > 4 mM (inactive)

Question: How did the Kd turn out when `O=C(NC1=NCCS1)c1ccc([N+](=O)[O-])cc1Cl` was run?
Answer: > 4 mM (inactive)

Question: Which Kd does the source give for `Cn1c(=O)c2[nH]cnc2n(-c2ccccc2)c1=O` here?
Answer: > 4 mM (inactive)

Question: For `NC(=O)c1ccc(-c2ccccn2)s1`, which Kd is on record?
Answer: > 4 mM (inactive)

Question: For `COc1c(OC)c2occc2c2oc(=O)ccc12`, which Kd is on record?
Answer: > 4 mM (inactive)

Question: `CNc1nc(SC)nc(N2CCOCC2)n1` was tested. Which Kd did it give?
Answer: > 4 mM (inactive)

Question: Which Kd does the source give for `Cc1oc2nc3c(c(=O)[nH]c(=O)n3C)n2c1C` here?
Answer: > 4 mM (inactive)

Question: How did the Kd turn out when `Cc1cc(C(=O)Nc2sc(C)c(C)c2C#N)no1` was run?
Answer: > 4 mM (inactive)

Question: Which Kd does the source give for `Nc1cc(=O)[nH]c(=S)n1-c1ccc(F)cc1` here?
Answer: > 4 mM (inactive)

Question: `CC(=O)Nc1ccc(C(=O)n2nc(C)cc2C)cc1` was tested. Which Kd did it give?
Answer: > 4 mM (inactive)

Question: Which Kd does the source give for `CCCN1CCC(N2CCC(O)CC2)CC1` here?
Answer: > 4 mM (inactive)

Question: How did the Kd turn out when `O=C1c2cccnc2C(=O)N1Cc1ccc2c(c1)OCO2` was run?
Answer: > 4 mM (inactive)

Question: How did the Kd turn out when `Cc1ccc(S(=O)(=O)CC(=O)N(C)C)cc1` was run?
Answer: > 4 mM (inactive)

Question: With `O=C1NC(=O)C(C(=S)Nc2ccccc2)C(=O)N1` as the compound, how does the Kd read?
Answer: > 4 mM (inactive)

Question: With `CC1CC[C@]2(NC1)O[C@H]1CC3C4CC[C@H]5C[C@@H](O)CC[C@]5(C)C4CC[C@]3(C)[C@H]1[C@@H]2C` (stereo partly specified) as the compound, how does the Kd read?
Answer: > 4 mM (inactive)

Question: `CC(C)=CCc1c(O)cc(C)oc1=O` was tested. Which Kd did it give?
Answer: > 4 mM (inactive)

Question: `Nc1cccc(-c2cnco2)c1` was tested. Which Kd did it give?
Answer: > 4 mM (inactive)

Question: With `COn1c(=O)c(-c2ccco2)[n+]([O-])c2ccccc21` as the compound, how does the Kd read?
Answer: > 4 mM (inactive)

Question: Which Kd does the source give for `Nc1ccc2c(c1)OCCO2` here?
Answer: > 4 mM (inactive)

Question: How did the Kd turn out when `CCOC(=O)Cc1nc2ccccc2[nH]1` was run?
Answer: > 4 mM (inactive)

Question: `Cc1nc2ccc(NC(=O)N3CCSCC3)cc2s1` was tested. Which Kd did it give?
Answer: > 4 mM (inactive)

Question: Which Kd does the source give for `COC(=O)CCSCC(=O)Nc1nccs1` here?
Answer: > 4 mM (inactive)

Question: With `CN1C(=O)c2ccc(C(=O)NC3CCCCC3)cc2C1=O` as the compound, how does the Kd read?
Answer: > 4 mM (inactive)

Question: How did the Kd turn out when `COc1ccc(N=C2NC(=O)CS2)cc1` was run?
Answer: > 4 mM (inactive)

Question: `CN1C(=O)c2ccc(N3CCCC3)cc2C1=O` was tested. Which Kd did it give?
Answer: > 4 mM (inactive)

Question: `Cc1nc(-c2ccc(CO)s2)cs1` was tested. Which Kd did it give?
Answer: > 4 mM (inactive)

Question: Which Kd does the source give for `NNc1ncnc2sccc12` here?
Answer: > 4 mM (inactive)

Question: Which Kd does the source give for `COC(=O)c1noc(C)c1C(C)=O` here?
Answer: > 4 mM (inactive)

Question: How did the Kd turn out when `N#Cc1cnn(Cc2ccc(Cl)cc2)c1N` was run?
Answer: > 4 mM (inactive)

Question: How did the Kd turn out when `O=C(O)c1sccc1-n1cccc1` was run?
Answer: > 4 mM (inactive)

Question: Which Kd does the source give for `O=C(O)Cc1csc(-c2ccccc2)n1` here?
Answer: > 4 mM (inactive)

Question: Which Kd does the source give for `CC1(C)C(=O)[C@@H]2O[C@@H]2[C@@]2(C)C1C[C@@H](O)[C@]1(C)C2CC[C@@]2(C)[C@H](c3ccoc3)OC(=O)C3OC321` (stereo partly specified) here?
Answer: > 4 mM (inactive)

Question: With `Cc1ccc(C(=O)CS(C)(=O)=O)cc1` as the compound, how does the Kd read?
Answer: > 4 mM (inactive)

Question: For `Cc1c(O)c(O)cc2c1CC=C1[C@@]2(C)CC[C@@]2(C)C3C[C@](C)(C(=O)O)CC[C@]3(C)CC[C@]12C` (stereo partly specified), which Kd is on record?
Answer: > 4 mM (inactive)

Question: For `CSc1ccc2nnc(-c3cccnc3)n2n1`, which Kd is on record?
Answer: > 4 mM (inactive)

Question: How did the Kd turn out when `COC(=O)c1ccc(N2CCCC2)nc1` was run?
Answer: > 4 mM (inactive)

Question: `c1ccc(CN2CCC3(CC2)Nc2ccccc2CO3)cc1` was tested. Which Kd did it give?
Answer: > 4 mM (inactive)

Question: With `O=C(CC1SC(=O)NC1=O)Nc1ccccc1` (stereo unspecified) as the compound, how does the Kd read?
Answer: > 4 mM (inactive)

Question: Which Kd does the source give for `CC(=O)c1cc(CN2C(=O)c3ccccc3C2=O)cs1` here?
Answer: > 4 mM (inactive)

Question: For `N#Cc1cc(-c2ccccc2)oc1N`, which Kd is on record?
Answer: > 4 mM (inactive)

Question: `CS(=O)(=O)c1cccc(C(=O)Nc2nccs2)c1` was tested. Which Kd did it give?
Answer: > 4 mM (inactive)

Question: Which Kd does the source give for `COc1cc2[nH]c(=S)n(C)c(=O)c2cc1OC` here?
Answer: > 4 mM (inactive)

Question: With `CN1CCN(c2ccc(C(=O)O)cc2)CC1` as the compound, how does the Kd read?
Answer: > 4 mM (inactive)

Question: For `Cn1nc(C(=O)Nc2cccnc2)c2ccccc2c1=O`, which Kd is on record?
Answer: > 4 mM (inactive)

Question: Which Kd does the source give for `Nc1ccccc1N=C1CNC(=O)C1` here?
Answer: > 4 mM (inactive)

Question: For `C=C1C(=O)O[C@@H]2C[C@@]3(C)CCC[C@H](C)C3=C[C@H]12`, which Kd is on record?
Answer: > 4 mM (inactive)

Question: With `COc1cc2c(cc1-c1cc3cc4ccoc4cc3oc1=O)OCO2` as the compound, how does the Kd read?
Answer: > 4 mM (inactive)

Question: `C=CCCCCCCCCCCCC(O)CC(O)CO` (stereo unspecified) (tested in a mixture with another compound) was tested. Which Kd did it give?
Answer: > 4 mM (inactive)

Question: With `CC(=O)c1cc2c(cc1O)OC(C)(C)C=C2` as the compound, how does the Kd read?
Answer: > 4 mM (inactive)
